In patent publication EP2607478A1, “Phenanthroline treated MSC” (Universiteit Twente, priority 2011, dated 2013):

How the values were obtained:
MSCs = test: Protein expression analysis (Luminex assay) of treated MSCs; assay type: cell-based, Human; settings: primary MSCs, 2 days; for VEGF secretion / secretion of IL-8: 150 µM DFO or 200 µM PHE, measured in cell lysates; for secretion of IL-8: basic 15-25 pg/mL
Protocol: MSCs were seeded at 5000 cells/cm^2 in T25 flasks. […] After 2 days, cells were lysed with 250 µL RIPA buffer with addition of protease/phosphatase inhibitors (Roche). Total protein concentrations were determined using a BCA kit (Pierce) and 10 µg of total protein was used to determine concentrations of VEGF, IL-8, basic fibroblast growth factor (bFGF), […] stimulating factor (G-CSF) and epidermal growth factor (EGF) using a Luminex assay (Invitrogen) according to the manufacturer's protocol. Briefly, cells and standards were incubated with fluorescent beads, followed by incubation with a biotinylated detection antibody. After incubation with streptavidin-R-Phycoerythrin and washing, both the fluorescence of the coupled beads and the R-phycoerythrin were measured using a Luminex® FlexMap™.

[1] = system: immortalized MSC cell line; test: Screen for hypoxia mimics with hypoxia response element reporter in immortalized MSC; assay type: cell-based; settings: clonally expanded immortalized MSC cell line
From the text: Because previous screening methods were based mostly on cancer cells and the results thereof can not necessarily be extrapolated to MSC, a novel screening method was developed, based on an immortalized MSC. Using this screening method, we quickly screened a large panel of potential compounds for effects on MSC. Such screening method is useful for screening a large panel of compound for their ability to modulate (i.e. increase or decrease) an angiogenic capacity of a MSC. […]
It is possible to use for instance an (immortalized) MSC and transfect it with a HRE-luciferase construct as described in Said et al (56) or with a 5HRE-ODD-luc construct described in Saha et al (57). Detection of transcription of the reporter gene is then easily achieved by measuring luciferase activity (luminescence) of the cells after contacting said MSC with the compound. […] As a consequence, reporter gene expression is increased, which can be detected, in case of luciferase, by measuring an increase in luminescence in these cells. Vice versa, decreased luminescence is indicative for a compound able to inhibit angiogenesis, which compound may subsequently be used for anti-angiogenic therapy, for instance in anti-tumor therapy. […]

[2] = 200 µM PHE, compared to DFO and hypoxia

SMILES | VEGF secretion (MSCs) [pg/mL] | secretion of IL-8 (MSCs) [pg/mL] | secretion of basic fibroblast growth factor (bFGF) (MSCs; [2]) | secretion of growth-colony stimulating factor (G-CSF) (MSCs; [2]) | ability to mimic hypoxia in MSCs [1]
CC(=O)N(O)CCCCCNC(=O)CCC(=O)N(O)CCCCCNC(=O)CCC(=O)N(O)CCCCCN [DFO, reference compound] | 140 | 15 to 25 | – | – | –
c1cnc2c(c1)ccc1cccnc12 [PHE, 1, 10-phenanthroline] | 65 | 300 to 500 | reduced | reduced | able to mimic hypoxia in MSCs
